Data published in ChEMBL document CHEMBL5291721, “A preclinical secondary pharmacology resource illuminates target-adverse drug reaction associations of marketed drugs” (Nat Commun, 2023).

Tests used:
[1] = biological target: T1, Alpha-2A adrenergic receptor (Homo sapiens, UniProt P08913); assay type: functional, cell-based
T1 sequence (P08913 whole entry): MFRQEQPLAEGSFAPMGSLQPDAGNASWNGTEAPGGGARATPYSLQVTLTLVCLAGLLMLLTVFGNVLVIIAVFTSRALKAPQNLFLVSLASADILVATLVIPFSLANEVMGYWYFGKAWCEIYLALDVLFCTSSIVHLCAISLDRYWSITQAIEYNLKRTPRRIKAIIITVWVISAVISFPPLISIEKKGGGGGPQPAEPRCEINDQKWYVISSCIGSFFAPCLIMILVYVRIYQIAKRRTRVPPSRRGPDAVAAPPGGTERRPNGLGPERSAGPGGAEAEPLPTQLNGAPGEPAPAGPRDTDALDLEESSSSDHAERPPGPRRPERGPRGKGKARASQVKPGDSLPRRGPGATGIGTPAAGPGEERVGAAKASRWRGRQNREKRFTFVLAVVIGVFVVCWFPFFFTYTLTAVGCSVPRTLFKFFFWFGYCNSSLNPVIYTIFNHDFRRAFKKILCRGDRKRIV

B2 bradykinin receptor = biological target: T2, B2 bradykinin receptor (Homo sapiens, UniProt P30411)
T2 sequence (P30411 whole entry): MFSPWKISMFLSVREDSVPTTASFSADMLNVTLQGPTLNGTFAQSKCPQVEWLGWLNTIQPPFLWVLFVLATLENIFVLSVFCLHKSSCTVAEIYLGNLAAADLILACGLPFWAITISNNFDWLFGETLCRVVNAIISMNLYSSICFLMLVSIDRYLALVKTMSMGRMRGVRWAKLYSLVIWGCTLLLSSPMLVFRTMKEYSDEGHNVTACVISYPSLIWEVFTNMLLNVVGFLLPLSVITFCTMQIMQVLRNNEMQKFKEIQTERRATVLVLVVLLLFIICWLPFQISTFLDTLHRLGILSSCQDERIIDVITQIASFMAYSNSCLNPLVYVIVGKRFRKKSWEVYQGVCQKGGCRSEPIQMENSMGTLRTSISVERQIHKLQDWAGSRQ

[2] = biological target: T3, Muscarinic acetylcholine receptor M2 (Homo sapiens, UniProt P08172); assay type: functional, cell-based
T3 sequence (P08172 whole entry): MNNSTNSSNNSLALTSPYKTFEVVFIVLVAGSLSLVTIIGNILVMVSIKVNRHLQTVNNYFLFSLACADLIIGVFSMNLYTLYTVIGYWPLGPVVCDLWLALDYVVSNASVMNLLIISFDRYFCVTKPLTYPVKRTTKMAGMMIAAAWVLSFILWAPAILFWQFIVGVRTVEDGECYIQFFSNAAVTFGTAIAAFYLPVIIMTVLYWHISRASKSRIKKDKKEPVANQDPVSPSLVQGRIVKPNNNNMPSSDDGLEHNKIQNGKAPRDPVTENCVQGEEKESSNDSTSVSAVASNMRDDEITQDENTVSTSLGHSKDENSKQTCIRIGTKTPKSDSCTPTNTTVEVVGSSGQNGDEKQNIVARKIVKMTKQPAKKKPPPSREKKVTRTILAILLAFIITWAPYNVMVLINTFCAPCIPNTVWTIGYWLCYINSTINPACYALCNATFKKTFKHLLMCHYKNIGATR

Glucocorticoid receptor = biological target: T4, Glucocorticoid receptor (Homo sapiens, UniProt P04150)
T4 sequence (P04150 whole entry): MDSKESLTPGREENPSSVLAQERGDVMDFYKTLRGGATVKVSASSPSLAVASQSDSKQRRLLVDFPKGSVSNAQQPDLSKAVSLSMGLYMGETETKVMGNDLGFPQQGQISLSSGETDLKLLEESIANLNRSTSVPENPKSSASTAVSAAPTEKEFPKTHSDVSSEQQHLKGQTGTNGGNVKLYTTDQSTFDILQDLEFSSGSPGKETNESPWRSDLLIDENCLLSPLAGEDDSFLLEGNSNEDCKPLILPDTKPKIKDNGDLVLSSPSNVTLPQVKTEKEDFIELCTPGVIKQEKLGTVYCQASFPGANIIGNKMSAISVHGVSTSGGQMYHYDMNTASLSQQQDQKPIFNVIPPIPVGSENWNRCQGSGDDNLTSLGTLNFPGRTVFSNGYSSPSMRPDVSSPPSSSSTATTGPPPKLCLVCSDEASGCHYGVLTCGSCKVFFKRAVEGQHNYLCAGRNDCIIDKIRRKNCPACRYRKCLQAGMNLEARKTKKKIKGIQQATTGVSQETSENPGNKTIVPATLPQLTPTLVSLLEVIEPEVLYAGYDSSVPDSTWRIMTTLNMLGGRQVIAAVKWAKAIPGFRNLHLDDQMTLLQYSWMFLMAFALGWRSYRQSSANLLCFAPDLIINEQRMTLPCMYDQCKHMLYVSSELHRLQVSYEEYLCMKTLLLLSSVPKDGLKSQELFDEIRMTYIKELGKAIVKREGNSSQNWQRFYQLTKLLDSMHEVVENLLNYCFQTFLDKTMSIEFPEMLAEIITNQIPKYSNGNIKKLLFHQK

Mu-type opioid receptor = Mu-type opioid receptor (Homo sapiens, UniProt P35372); assay: biochemical; assay type: functional
[3] = biological target: 3',5'-cyclic-AMP phosphodiesterase 4D (Homo sapiens, UniProt Q08499); assay type: functional
[4] = biological target: T5, Equilibrative nucleoside transporter 1 (Homo sapiens, UniProt Q99808)
T5 sequence (Q99808 whole entry): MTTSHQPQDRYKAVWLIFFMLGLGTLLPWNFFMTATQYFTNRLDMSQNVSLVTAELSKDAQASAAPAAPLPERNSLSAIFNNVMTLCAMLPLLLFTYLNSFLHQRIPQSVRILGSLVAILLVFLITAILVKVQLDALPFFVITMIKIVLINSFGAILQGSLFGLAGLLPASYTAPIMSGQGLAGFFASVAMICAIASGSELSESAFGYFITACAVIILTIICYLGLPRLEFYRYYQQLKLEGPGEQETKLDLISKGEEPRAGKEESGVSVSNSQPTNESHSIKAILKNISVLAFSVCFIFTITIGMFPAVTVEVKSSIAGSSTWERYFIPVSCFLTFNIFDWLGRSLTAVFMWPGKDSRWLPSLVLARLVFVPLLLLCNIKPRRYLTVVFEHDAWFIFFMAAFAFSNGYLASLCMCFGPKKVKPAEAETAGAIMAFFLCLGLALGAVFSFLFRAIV

[5] = biological target: cGMP-inhibited 3',5'-cyclic phosphodiesterase 3A (Homo sapiens, UniProt Q14432); assay type: functional
Histamine H3 receptor = Histamine H3 receptor (Homo sapiens, UniProt Q9Y5N1)
Also: assay procedure not described here.

Histamine H3 receptor, sequence (Q9Y5N1 whole entry): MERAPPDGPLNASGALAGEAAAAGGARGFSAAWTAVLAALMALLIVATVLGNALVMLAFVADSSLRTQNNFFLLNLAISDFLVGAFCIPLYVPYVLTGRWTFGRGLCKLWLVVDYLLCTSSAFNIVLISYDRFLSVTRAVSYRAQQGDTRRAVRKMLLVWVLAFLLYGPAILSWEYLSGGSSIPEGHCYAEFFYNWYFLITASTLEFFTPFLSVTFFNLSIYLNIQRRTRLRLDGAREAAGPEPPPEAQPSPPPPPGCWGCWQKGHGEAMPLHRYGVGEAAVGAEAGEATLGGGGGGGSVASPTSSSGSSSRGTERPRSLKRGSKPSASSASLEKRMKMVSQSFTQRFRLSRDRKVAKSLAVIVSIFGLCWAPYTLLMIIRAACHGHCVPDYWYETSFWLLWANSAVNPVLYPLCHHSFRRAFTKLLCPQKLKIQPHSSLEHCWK
cGMP-inhibited 3',5'-cyclic phosphodiesterase 3A, sequence (Q14432 whole entry): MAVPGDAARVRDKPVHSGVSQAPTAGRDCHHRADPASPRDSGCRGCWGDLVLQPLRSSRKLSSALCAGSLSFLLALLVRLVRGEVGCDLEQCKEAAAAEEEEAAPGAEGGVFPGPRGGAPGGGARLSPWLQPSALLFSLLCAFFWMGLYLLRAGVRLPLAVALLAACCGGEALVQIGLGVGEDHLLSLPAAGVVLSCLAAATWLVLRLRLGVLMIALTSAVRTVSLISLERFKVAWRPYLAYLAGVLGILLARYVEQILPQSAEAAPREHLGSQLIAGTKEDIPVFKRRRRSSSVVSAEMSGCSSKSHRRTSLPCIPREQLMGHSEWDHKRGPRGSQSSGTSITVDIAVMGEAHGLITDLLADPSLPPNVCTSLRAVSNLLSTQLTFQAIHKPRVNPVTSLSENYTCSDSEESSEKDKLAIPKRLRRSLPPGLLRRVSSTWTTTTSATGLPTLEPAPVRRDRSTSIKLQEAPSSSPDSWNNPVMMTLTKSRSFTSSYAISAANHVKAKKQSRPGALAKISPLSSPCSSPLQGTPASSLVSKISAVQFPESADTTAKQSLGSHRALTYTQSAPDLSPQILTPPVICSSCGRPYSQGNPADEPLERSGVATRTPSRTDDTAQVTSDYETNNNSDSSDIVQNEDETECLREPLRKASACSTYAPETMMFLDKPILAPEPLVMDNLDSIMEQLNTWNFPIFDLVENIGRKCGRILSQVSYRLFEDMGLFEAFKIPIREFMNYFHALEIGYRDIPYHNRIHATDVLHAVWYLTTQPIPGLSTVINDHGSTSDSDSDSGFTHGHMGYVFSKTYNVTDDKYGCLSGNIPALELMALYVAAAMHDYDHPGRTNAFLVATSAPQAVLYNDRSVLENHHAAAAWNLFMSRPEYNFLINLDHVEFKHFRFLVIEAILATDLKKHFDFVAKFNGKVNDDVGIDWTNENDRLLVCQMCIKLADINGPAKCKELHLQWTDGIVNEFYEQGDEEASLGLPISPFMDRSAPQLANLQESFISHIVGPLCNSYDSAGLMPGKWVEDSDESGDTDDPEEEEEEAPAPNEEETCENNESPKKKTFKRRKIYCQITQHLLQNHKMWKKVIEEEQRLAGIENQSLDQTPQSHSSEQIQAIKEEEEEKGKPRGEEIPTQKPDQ
3',5'-cyclic-AMP phosphodiesterase 4D, sequence (Q08499 whole entry): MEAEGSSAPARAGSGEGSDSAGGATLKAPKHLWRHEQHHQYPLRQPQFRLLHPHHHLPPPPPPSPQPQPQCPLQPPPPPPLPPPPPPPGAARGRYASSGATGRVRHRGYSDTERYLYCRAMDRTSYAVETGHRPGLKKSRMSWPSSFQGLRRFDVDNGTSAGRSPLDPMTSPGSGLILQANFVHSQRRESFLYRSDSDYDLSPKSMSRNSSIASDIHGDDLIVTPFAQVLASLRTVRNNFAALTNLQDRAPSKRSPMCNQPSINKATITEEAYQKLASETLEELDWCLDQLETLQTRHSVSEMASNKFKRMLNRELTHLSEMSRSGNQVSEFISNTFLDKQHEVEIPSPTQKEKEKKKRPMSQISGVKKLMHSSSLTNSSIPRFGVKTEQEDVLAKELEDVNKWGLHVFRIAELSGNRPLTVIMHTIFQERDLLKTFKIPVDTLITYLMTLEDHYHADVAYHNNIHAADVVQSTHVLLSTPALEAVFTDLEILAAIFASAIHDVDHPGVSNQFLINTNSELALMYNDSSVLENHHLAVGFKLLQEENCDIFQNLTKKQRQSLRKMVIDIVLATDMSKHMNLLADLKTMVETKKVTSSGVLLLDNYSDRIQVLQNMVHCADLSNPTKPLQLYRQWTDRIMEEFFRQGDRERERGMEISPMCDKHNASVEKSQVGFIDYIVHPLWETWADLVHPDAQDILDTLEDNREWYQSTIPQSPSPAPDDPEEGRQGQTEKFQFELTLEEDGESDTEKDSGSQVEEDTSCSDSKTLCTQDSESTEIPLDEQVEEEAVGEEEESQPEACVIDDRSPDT
Mu-type opioid receptor, sequence (P35372 whole entry): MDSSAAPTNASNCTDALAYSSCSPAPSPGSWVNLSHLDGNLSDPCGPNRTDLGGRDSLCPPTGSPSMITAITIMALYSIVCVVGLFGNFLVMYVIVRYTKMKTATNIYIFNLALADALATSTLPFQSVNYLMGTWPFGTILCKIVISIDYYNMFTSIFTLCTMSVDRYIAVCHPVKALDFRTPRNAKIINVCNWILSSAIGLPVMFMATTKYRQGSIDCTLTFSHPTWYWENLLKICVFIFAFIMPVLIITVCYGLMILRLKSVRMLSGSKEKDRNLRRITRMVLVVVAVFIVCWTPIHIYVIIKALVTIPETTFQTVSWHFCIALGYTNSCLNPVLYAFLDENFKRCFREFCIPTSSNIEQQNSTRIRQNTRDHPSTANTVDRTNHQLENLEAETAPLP

CCCCCCC(C)(C)c1cc(O)c2c(c1)OC(C)(C)C1CCC(=O)CC21 (stereo unspecified) [NABILONE]
AC50 [1]: > 30 µM | AC50 (B2 bradykinin receptor): > 10 µM | AC50 [2]: > 30 µM | AC50 (Glucocorticoid receptor): > 30 µM | AC50 (Mu-type opioid receptor): > 30 µM | AC50 [3]: > 30 µM | AC50 [4]: > 30 µM | AC50 [5]: > 30 µM | AC50 (Histamine H3 receptor): > 30 µM

COc1ccc2cccc(CCNC(C)=O)c2c1 [AGOMELATINE]
AC50 [1]: > 30 µM | AC50 (B2 bradykinin receptor): > 30 µM | AC50 [2]: > 30 µM | AC50 (Glucocorticoid receptor): > 30 µM | AC50 (Mu-type opioid receptor): > 30 µM | AC50 [3]: > 30 µM | AC50 [4]: > 30 µM | AC50 [5]: > 30 µM | AC50 (Histamine H3 receptor): > 10 µM

O=C(OCCN1CCOCC1)c1cccnc1Nc1cccc(C(F)(F)F)c1 [MORNIFLUMATE]
AC50 [1]: > 30 µM | AC50 (B2 bradykinin receptor): > 30 µM | AC50 [2]: > 30 µM | AC50 (Glucocorticoid receptor): > 30 µM | AC50 (Mu-type opioid receptor): > 30 µM | AC50 [3]: 4.3 µM | AC50 [4]: > 30 µM | AC50 [5]: > 30 µM | AC50 (Histamine H3 receptor): > 30 µM

COc1ccc(C(=O)NCc2ccc(OCCN(C)C)cc2)cc1OC [ITOPRIDE]
AC50 [1]: > 30 µM | AC50 (B2 bradykinin receptor): > 30 µM | AC50 [2]: > 30 µM | AC50 (Glucocorticoid receptor): > 30 µM | AC50 (Mu-type opioid receptor): > 30 µM | AC50 [3]: > 30 µM | AC50 [4]: > 30 µM | AC50 [5]: > 30 µM | AC50 (Histamine H3 receptor): 19 µM

CC(C)(Oc1ccc(C2CC2(Cl)Cl)cc1)C(=O)O (stereo unspecified) [CIPROFIBRATE]
AC50 [1]: > 30 µM | AC50 (B2 bradykinin receptor): > 30 µM | AC50 [2]: > 30 µM | AC50 (Glucocorticoid receptor): > 30 µM | AC50 (Mu-type opioid receptor): > 30 µM | AC50 [3]: > 30 µM | AC50 [4]: > 30 µM | AC50 [5]: > 30 µM | AC50 (Histamine H3 receptor): > 30 µM

O=C(O)CCCc1ccccc1 [PHENYLBUTANOIC ACID]
AC50 [1]: > 30 µM | AC50 (B2 bradykinin receptor): > 30 µM | AC50 [2]: > 30 µM | AC50 (Glucocorticoid receptor): > 30 µM | AC50 (Mu-type opioid receptor): > 30 µM | AC50 [3]: > 30 µM | AC50 [4]: > 30 µM | AC50 [5]: > 30 µM | AC50 (Histamine H3 receptor): > 10 µM

Cc1ccc(-c2nc3ccc(C)cn3c2CC(=O)N(C)C)cc1 [ZOLPIDEM]
AC50 [1]: > 30 µM | AC50 (B2 bradykinin receptor): > 30 µM | AC50 [2]: > 30 µM | AC50 (Glucocorticoid receptor): > 30 µM | AC50 (Mu-type opioid receptor): > 30 µM | AC50 [3]: > 30 µM | AC50 [4]: > 30 µM | AC50 [5]: > 30 µM | AC50 (Histamine H3 receptor): > 30 µM

CCC(C(=O)O)c1ccc(CC(C)C)cc1 (stereo unspecified) [BUTIBUFEN]
AC50 [1]: > 30 µM | AC50 (B2 bradykinin receptor): > 30 µM | AC50 [2]: > 30 µM | AC50 (Glucocorticoid receptor): > 30 µM | AC50 (Mu-type opioid receptor): > 30 µM | AC50 [3]: > 30 µM | AC50 [4]: > 30 µM | AC50 [5]: > 30 µM | AC50 (Histamine H3 receptor): > 30 µM

Cc1cccc(C)c1NC(=O)C1CCCCN1C (stereo unspecified) [MEPIVACAINE]
AC50 [1]: > 30 µM | AC50 (B2 bradykinin receptor): > 30 µM | AC50 [2]: > 30 µM | AC50 (Glucocorticoid receptor): > 30 µM | AC50 (Mu-type opioid receptor): > 30 µM | AC50 [3]: > 30 µM | AC50 [4]: > 30 µM | AC50 [5]: > 30 µM | AC50 (Histamine H3 receptor): > 30 µM
